# Calls of active or inactive are those of the source. The rule behind the calls is not given here.
# Tests used:
# Bel-7402 [1] = experiment: Induction of apoptosis in human Bel-7402 cells assessed as late apoptotic cells at 0.313 uM incubated for 24 hrs by Annexin V and dead cell assay kit (reference value: 4.45 %); type: functional
# Bel-7402 [2] = experiment: Induction of ERK degradation in human Bel-7402 cells at 2.5 uM incubated for 24 hrs in presence of choro-quine by Western blot analysis; type: cell-based
# Bel-7402 [3] = experiment: Cytotoxicity against human Bel-7402 cells assessed as increase LDH release at 2.5 to 5 uM by LDH assay; type: functional, cell-based; conditions: dose 2.5-5 µM, time 24-48 hrs, TDE = time-dependent effect
# [4] = Biodistribution in kidney of mouse bearing tumor measured after 24 hr by ICG dye based fluorescence imaging; type: ADME, organism-based; conditions: in vivo
# [5] = Drug uptake in tumor of mouse bearing tumor measured after 24 hr by ICG dye based fluorescence imaging; type: ADME, tissue-based, Neoplasm; conditions: in vivo
# [6] = MRT (0 to t) in Sprague-Dawley rat at 20 mg/kg, ip measured for 0.03 to 24 hrs by UPLC-MS analysis; type: ADME, organism-based; conditions: in vivo, time 0.03-24 hrs
# [7] = Toxicity in ICR mouse assessed as change in mean corpuscular hemoglobin level at 100 mg/kg, ip qd (reference value: 17.5 pg); type: organism-based; conditions: in vivo
# Bel-7402 [8] = experiment: Induction of apoptosis in human Bel-7402 cells assessed as viable cells at 0.313 uM incubated for 24 hrs by Annexin V and dead cell assay kit (reference value: 91.00%); type: functional; conditions: read-out: Activity
# [9] = Toxicity in ICR mouse assessed as change in hemoglobin level at 100 mg/kg, ip qd (reference value: 124 g/L); type: organism-based; conditions: in vivo
# [10] = Toxicity in ICR mouse assessed as change in red blood cell volume distribution width at 100 mg/kg, ip qd (reference value: 16.6 %); type: organism-based; conditions: in vivo
# Bel-7402 [11] = experiment: Antitumor activity against human Bel-7402 cells xenografted in BALB/c nude mouse assessed as tumor growth inhibition at 10 mg/kg, ip bid measured every 2 days for 14 days relative to control; type: functional; conditions: Bel-7402, 336 h, time 14 day, read-out: TGI
# Bel-7402 [12] = experiment: Induction of apoptosis in human Bel-7402 cells assessed as viable cells at 1.25 uM incubated for 24 hrs by Annexin V and dead cell assay kit (reference value: 91.00%); type: functional; conditions: read-out: Activity
# Bel-7402 [13] = experiment: Induction of apoptosis in human Bel-7402 cells assessed as early apoptotic cells at 2.5 uM incubated for 24 hrs by Annexin V and dead cell assay kit (reference value: 3.75 %); type: functional
# Bel-7402 [14] = experiment: Induction of apoptosis in human Bel-7402 cells assessed as viable cells at 2.5 uM incubated for 24 hrs in presence of U0126 by Annexin V and Dead cell kit assay (reference value: 90.82 %); type: functional; conditions: read-out: Activity
# Bel-7402 [15] = experiment: Induction of apoptosis in human Bel-7402 cells assessed as early apoptotic cells at 2.5 uM incubated for 24 hrs in presence of U0126 by Annexin V and Dead cell kit assay (reference value: 3.7 %); type: functional
# PANC-1 = experiment: Cytotoxicity against human PANC-1 cells assessed as reduction in cell viability incubated for 72 hrs by MTT assay; type: functional, cell-based; conditions: PANC-1, 72 h
# [16] = Toxicity in BALB/c nude mouse xenografted with human Bel-7402 cells assessed as behavioural change at 10 to 20 mg/kg, ip bid; type: organism-based; conditions: in vivo, dose 10-20 mg/kg
# [17] = Acute toxicity in ICR mouse assessed as behavioural change at 100 to 500 mg/kg, ip; type: organism-based; conditions: in vivo, dose 100-500 mg/kg
# Bel-7402 [18] = experiment: Induction of AKT degradation in human Bel-7402 cells at 2.5 uM incubated for 24 hrs in presence of Z-vad-fmk by Western blot analysis; type: cell-based
# [19] = Sub-chronic toxicity in ICR mouse assessed as behavioural change at 100 mg/kg/day, ip for 26 days; type: organism-based; conditions: in vivo, 624 h, time 26 day
# [20] = Toxicity in ICR mouse assessed as change in mean corpuscular hemoglobin concentration at 100 mg/kg, ip qd (reference value: 343 g/L); type: organism-based; conditions: in vivo
# Bel-7402 [21] = experiment: Induction of apoptosis in human Bel-7402 cells assessed as early apoptotic cells at 0.625 uM incubated for 24 hrs by Annexin V and dead cell assay kit (reference value: 3.75 %); type: functional
# [22] = Cytotoxicity against human Biu-87 cells assessed as reduction in cell viability incubated for 72 hrs by MTT assay; type: functional, cell-based; conditions: BIU87, 72 h
# Bel-7402 [23] = experiment: Induction of apoptosis in human Bel-7402 cells assessed as dead cells at 5 uM incubated for 24 hrs by Annexin V and dead cell assay kit (reference value: 0.80 %); type: functional
# Bel-7402 [24] = experiment: Induction of apoptosis in human Bel-7402 cells assessed as viable cells at 5 uM incubated for 24 hrs by Annexin V and dead cell assay kit (reference value: 91.00%); type: functional; conditions: read-out: Activity
# [25] = Toxicity in ICR mouse assessed as change in lymphocyte level at 100 mg/kg, ip qd (reference value: 75.2 %); type: organism-based; conditions: in vivo
# [26] = Toxicity in ICR mouse assessed as change in plateletcrit level at 100 mg/kg, ip qd (reference value: 0.415 %); type: organism-based; conditions: in vivo
# Bel-7402 [27] = experiment: Induction of AKT degradation in human Bel-7402 cells at 2.5 uM incubated for 24 hrs in presence of chloroquine by Western blot analysis; type: cell-based
# [28] = Toxicity in ICR mouse assessed as change in monocyte level at 100 mg/kg, ip qd (reference value: 3.2 %); type: organism-based; conditions: in vivo
# [29] = Chronic toxicity in ICR mouse assessed as effect on spleen morphology at 100 mg/kg, ip qd measured after 26 days by H and E staining method; type: organism-based; conditions: in vivo, 624 h, time 26 day
# Bel-7402 [30] = experiment: Cytotoxicity against human Bel-7402 cells assessed as inhibition rate at 5 uM incubated for 72 hrs by MTT assay relative to control; type: functional; parameters: scale not given: the % may be the effect or the level left
# Bel-7402 [31] = experiment: Inhibition of cell proliferation in human Bel-7402 cells assessed as inhibition of colony formation incubated for 10 days by crystal violet based plate clone formation assay; type: functional; conditions: dose <= 2.0 µM, time 10.0 day, DDE = dose-dependent effect
# Bel-7402 [32] = experiment: Effect on AKT signalling pathway in human Bel-7402 cells assessed as decrease in phosphorylated-AKT level upto 2.5 uM incubated for 24 hrs by Western blot analysis; type: functional, cell-based
# Bel-7402 [33] = experiment: Induction of apoptosis in human Bel-7402 cells assessed as increase in cleaved caspase-3 upto 2.5 uM incubated for 24 hrs by Western blot analysis; type: functional, cell-based
# Bel-7402 [34] = experiment: Effect on ERK signalling pathway in human Bel-7402 cells assessed as increase in phosphorylated-ERK level upto 2.5 uM incubated for 24 hrs by Western blot analysis; type: functional, cell-based
# [35] = Chronic toxicity in ICR mouse assessed as effect on kidney morphology at 100 mg/kg, ip qd measured after 26 days by H and E staining method; type: organism-based; conditions: in vivo, 624 h, time 26 day
# Bel-7402 [36] = experiment: Induction of apoptosis in human Bel-7402 cells assessed as late apoptotic cells at 2.5 uM incubated for 24 hrs by Annexin V and Dead cell kit assay (reference value: 3.85 %); type: functional
# [37] = Toxicity in ICR mouse assessed as change in monocyte count at 100 mg/kg, ip qd (reference value: 0.1 10^9/L); type: organism-based; conditions: in vivo
smiles,measurement,setting,value
CC[C@H](C)/C=C(C)/C=C/C1=CC2=C(Cl)C(=O)[C@](C)(O)C(=O)C2=CN1Cc1ccc(OC(F)(F)F)cc1,Activity,Bel-7402 [1],1.6%
same,Activity,Bel-7402 [2],Active
same,Activity,Bel-7402 [3],Tde
same,Activity,[4],Active
same,Drug uptake,[5],Active
same,MRT last,[6],4.46 h
same,Activity,[7],16.8 pg
same,viability at 0.313 µM,Bel-7402 [8],94.3%
same,Activity,[9],141 g/L
same,Activity,[10],13.5%
same,inhibition in vivo at 10 mg/kg,Bel-7402 [11],34.6%
same,viability at 1.25 µM,Bel-7402 [12],88.4%
same,Activity,Bel-7402 [13],16.55%
same,viability at 2.5 µM,Bel-7402 [14],29.2%
same,Activity,Bel-7402 [15],26.1%
same,IC50,PANC-1,2290 nM
same,Activity,[16],Non-Toxic
same,Activity,[17],Non-Toxic
same,Activity,Bel-7402 [18],Active
same,Activity,[19],Non-Toxic
same,Activity,[20],306 g/L
same,Activity,Bel-7402 [21],4.7%
same,IC50,[22],2760 nM
same,Activity,Bel-7402 [23],8.15%
same,viability at 5 µM,Bel-7402 [24],8.2%
same,Activity,[25],50.3%
same,Activity,[26],0.407%
same,Activity,Bel-7402 [27],Active
same,Activity,[28],8.1%
same,Activity,[29],Non-Toxic
same,Activity,Bel-7402 [30],90.13%
same,Activity,Bel-7402 [31],Dde
same,Activity,Bel-7402 [32],Active
same,Activity,Bel-7402 [33],Active
same,Activity,Bel-7402 [34],Active
same,Activity,[35],Non-Toxic
same,Activity,Bel-7402 [36],37.9%
same,Activity,[37],0.3 10^9/L

# — ChEMBL document CHEMBL5154737, “Semisynthesis and biological evaluation of (+)-sclerotiorin derivatives as antitumor agents for the treatment of hepatocellular carcinoma” (Eur J Med Chem, 2022)
